Assay results: PMC11862611 (RSC Medicinal Chemistry, 2025)
Where a name gives a salt, the structure may show the parent alone. Read-outs that look alike come from different tables or passages of the source.

What was measured:
[1] = system: panel of neurotransmitter receptors; experiment: radioligand displacement assay, whole panel; format: binding, human
Method: 4.2.3.6. Radioligand Binding Assay (Supplemental Figure S3)
These assays were run by Eurofins under contract to LifeArc FR095-0011887. A representative protocol describing the human histamine H2 receptor (antagonist radioligand) assay is shown below.12 Cell membrane homogenates (24 µg protein) are incubated for 120 min at 22°C with 0.075 nM [125I]APT in the absence or presence of the test compound in a buffer containing 50 mM Na2HPO4/KH2PO4 (pH […]
7.4) and 0.05% BSA. […] Following

[2] = system: L. amazonensis GFP promastigotes; experiment: mouse model of L. amazonensis infection (ear, IL dosing); format: in vivo, BALB/c mice; conditions: 1.2 mg kg^−1 IL twice a week for 4 weeks
Method: Consequently, we used IL dosing for this experiment. To enable direct comparison with CF, the same treatment regimen (dose of 1.2 mg kg^−1via IL injection twice a week for 4 weeks starting on DPI) was used for both compounds.
A Weight variation of mice during 28 days of treatment. B Progression of lesion thickness over 28 day treatment period. C Representative photographs of the infected ear for each group taken after completion of treatment, D parasite burden was evaluated by LDA on 36 days post infection. […]
In vivo assays were conducted as previously reported 1. Two month old BALB/c female mice, weighing 20 - 25 g and of approximately the same age were used for the study. For infection of mice, stationary phase GFP L. amazonensis promastigotes were collected, washed and suspended in sterile PBS. A volume of 10 μl of sterile PBS containing 2 x 10^6 parasites was injected into the right ear. […]
Infected ear thicknesses were measured once or twice a week with a caliper gauge, and the lesion sizes were expressed as the difference between the thickness of infected and non-infected ear. On day 41 animals were sacrificed and the fluorescence measured (485 - 528 nm) and parasite load quantified using a limiting dilution assay (LDA).
Data on lesion progression were analysed for statistical significance by using the Dunnett test as part of the one-way ANOVA (GraphPad Prism 8 software). […]

[3] = system: L. major PX promastigotes; experiment: on-target growth inhibition, add-back cell line (PX); format: cell-based, Leishmania major
L. majIPCS = molecular target: T1, L. majIPCS (Leishmania major, UniProt E9AFX2); experiment: inhibition of microsomal enzyme preparation of L. majIPCS; format: biochemical; conditions: for inhibition at 20 µM: read-out: LmjIPCS inhibition % at 20 µM ± SD
T1 construct: made in house
T1 sequence (E9AFX2 1-338): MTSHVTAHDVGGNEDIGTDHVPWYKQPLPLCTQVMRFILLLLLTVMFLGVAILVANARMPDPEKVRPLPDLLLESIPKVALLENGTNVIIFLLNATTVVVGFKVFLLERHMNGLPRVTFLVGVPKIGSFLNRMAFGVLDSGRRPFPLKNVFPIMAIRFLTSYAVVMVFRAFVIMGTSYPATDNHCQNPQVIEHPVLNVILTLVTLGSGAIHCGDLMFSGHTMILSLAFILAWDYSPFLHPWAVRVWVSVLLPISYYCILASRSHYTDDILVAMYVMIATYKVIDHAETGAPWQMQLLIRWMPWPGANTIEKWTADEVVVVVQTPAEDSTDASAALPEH
Description: When tested against microsomal enzyme preparations of L. majIPCS[16] (Fig. 2, Table S1 ^†) the comparisons of pyrrolidine, tetrahydrofuran and cyclopentane derivatives 19, 21–23 supported earlier observations that all active compounds retained a basic nitrogen in the head group.[17] In general, whilst enzyme inhibitory activity was retained in a number of these analogues, much lower activity was observed against promastigote parasites. […] Speculating that this lower activity in promastigote parasite assays reflected a (membrane) transport issue, we then explored the corresponding ether derivative 27. Attempts to prepare this by acid catalysed ether formation failed and ultimately this was achieved through displacement of the corresponding benzylic chloride 25 (Scheme 3).
Fig. 2 Activity of a selection of simple amide and triazole linked CF analogues against a microsomal preparation of L. majIPCS and L. major promastigote parasites, respectively.

[4] = system: L. major promastigotes (FV1) WT; experiment: anti-promastigote assay, L. major (resazurin); format: cell-based; conditions: Leishmania major
Method: 4.2.3.1. Anti-promastigote assays
L. major promastigotes (FV1) WT, PX and Δ LCB2 in Schneider’s insect medium (100 μL at 1 × 106 mL−1) were incubated in 96-well plates with compounds in triplicate (amphotericin B and cycloheximide were used as positive controls, and untreated parasites with 1% DMSO as a negative control) at 26 °C for 48 h.
Resazurin Solution (10 μL) was then added and the plate incubated at 26 °C for 4 h prior to measurement using a fluorescence plate reader (555 - 585 nm). EC50 values were calculated using sigmoidal regression analysis (GraphPad Prism). […]
(§1) well-1 in a 24-well plate with round cover slips and incubated for 24 h at 37 °C and 5% CO2. […]

[5] = system: L. amazonensis promastigotes; experiment: anti-promastigote assay, L. amazonensis (resazurin); format: cell-based; conditions: Leishmania amazonensis
Method: 4.2.3.1. Anti-promastigote assays […]
Protocol 1: L. amazonensis promastigotes in Medium 199 (100 μL at 5 × 105 mL−1) were incubated in 96-well plates with compounds in triplicate (amphotericin B was used as a positive control, and untreated parasites with DMSO as a negative control) at 26 °C for 72 h. Resazurin Solution (10 μL) was then added and the plate incubated at 26 °C for 4 h prior to measurement using a fluorescence plate reader (555 - 585 nm). EC50 values were calculated using sigmoidal regression analysis (GraphPad Prism).
Protocol 2: Same procedure as above with the modification of a 48 h incubation time as opposed to 72 h and Leishmania amazonensis (MHOM/Br/75/JOSEFA) in Schneider’s insect medium in the place of Leishmania amazonensis (MHOM/Br/75/JOSEFA) in Medium 199. […]
as §1

[6] = promastigotes, 48 h, read-out: L. major promastigote EC50
[7] = promastigote parasites (Table 1), read-out: L.mj EC50
[8] = promastigote parasites (Table 1), read-out: L.amaz EC50
[9] = 48 h, read-out: L. major promastigote EC50
[10] = read-out: L. amaz promastigote EC50

CN1CCC[C@@H]1CCO[C@](C)(c1ccccc1)c1ccc(Cl)cc1 [1a, clemastine fumarate, reference compound]
binding profile across receptor panel [1]: activity against a broad representation of receptor sub-types | lesion growth trends ([2]; 35 days post-infection): similar | parasitaemia (parasite burden by LDA) versus untreated group ([2]; LDA 36 days post infection): statistically significant reduction | sensitivity in the add-back cell line (PX) [3]: Sensitivity was restored

CN1CCC[C@H]1c1cn(C(c2ccccc2)c2ccc(Cl)cc2)nn1 (stereo partly drawn) [14a]
IC50 (L. majIPCS): 14.5 µM | inhibition at 20 µM (L. majIPCS; 20 µM, microsomal preparation): 60.6 ± 9.2% | EC50 [4, 6]: > 33 µM

CN1CCCC1c1cn(C(c2ccccc2)c2ccc(Cl)cc2)nn1 (stereo not drawn) [14b]
IC50 (L. majIPCS): 8.49 µM | inhibition at 20 µM (L. majIPCS; 20 µM, microsomal preparation): 71 ± 9.7% | EC50 [4, 6]: > 33 µM

C[C@H]1CCCN1CCOC(c1ccccc1)c1ccc(Cl)cc1 (stereo partly drawn) [38a]
EC50 ([4]; read-out: L.mj EC50): 2.05 µM | EC50 ([5]; read-out: L.amaz EC50): 3.4 µM

C[C@@H]1CCCN1CCOC(c1ccccc1)c1ccc(Cl)cc1 (stereo partly drawn) [38b]
EC50 ([4]; read-out: L.mj EC50): 2.65 µM | EC50 ([5]; read-out: L.amaz EC50): 4.1 µM

COC(=O)[C@H]1CCCN1CCOC(c1ccccc1)c1ccc(Cl)cc1 (stereo partly drawn) [38c]
EC50 ([4]; read-out: L.mj EC50): 23.8 µM | EC50 ([5]; read-out: L.amaz EC50): 17.4 µM

OC[C@H]1CCCN1CCOC(c1ccccc1)c1ccc(Cl)cc1 (stereo partly drawn) [38d]
EC50 ([4]; read-out: L.mj EC50): 5.88 µM | EC50 ([5]; read-out: L.amaz EC50): 3.2 µM

COC[C@H]1CCCN1CCOC(c1ccccc1)c1ccc(Cl)cc1 (stereo partly drawn) [38e]
EC50 ([4]; read-out: L.mj EC50): 14.4 µM | EC50 ([5]; read-out: L.amaz EC50): 12.3 µM

Clc1ccc(C(OCCN2CCCC2)c2ccccc2)cc1 (stereo not drawn) [38f]
EC50 ([5]; read-out: L.amaz EC50): 3.27 µM

C[C@H]1CCCN1CCCCOC(c1ccccc1)c1ccc(Cl)cc1 (stereo partly drawn) [38g]
EC50 [4, 7]: 1.21 µM

C[C@H]1CCCN1CCCOC(c1ccccc1)c1ccc(Cl)cc1 (stereo partly drawn) [38h]
EC50 [4, 7]: 0.09 µM

C[C@H]1CCCN1CCO[C@@H](c1ccccc1)c1ccc(Cl)cc1 [38i]
EC50 ([4]; read-out: L.mj EC50): 7.05 µM

C[C@@H]1CCCN1CCO[C@@H](c1ccccc1)c1ccc(Cl)cc1 [38j]
EC50 ([4]; read-out: L.mj EC50): 11.5 µM

C[C@@H]1CCCN1CCO[C@H](c1ccccc1)c1ccc(Cl)cc1 [38k]
EC50 ([4]; read-out: L.mj EC50): 1.7 µM | EC50 ([5]; read-out: L.amaz EC50): 3.2 µM

C[C@@H]1CCCN1CCCO[C@H](c1ccccc1)c1ccc(Cl)cc1 [38m]
EC50 [4, 7]: 0.031 µM | EC50 [5, 8]: 0.042 µM

CC1(C)CCCN1CCCO[C@H](c1ccccc1)c1ccc(Cl)cc1 [38n]
EC50 [4, 7]: 0.027 µM | EC50 [5, 8]: 0.017 µM

Clc1ccc([C@H](OCCCN2CCCC2)c2ccccc2)cc1 [38o]
EC50 [4, 7]: 0.08 µM | EC50 [5, 8]: 0.1 µM

Clc1ccc(C(OCCC2CCCN2)c2ccccc2)cc1 (stereo not drawn) [compound 7]
IC50 (L. majIPCS): 6.26 µM | inhibition at 20 µM (L. majIPCS): 78.1 ± 12.5% | EC50 [4, 9]: 4.1 µM

CN1CCC[C@H]1CCOC(c1ccccc1)c1ccc(Cl)cc1 (stereo partly drawn) [compound 9]
IC50 (L. majIPCS): 4.45 µM | inhibition at 20 µM (L. majIPCS): 81.2 ± 10.6% | EC50 [4, 9]: 1.69 µM

CN1CCC[C@@H]1CCOC(c1ccccc1)c1ccc(Cl)cc1 (stereo partly drawn) [compound 10]
IC50 (L. majIPCS): 4.13 µM | inhibition at 20 µM (L. majIPCS): 78.1 ± 9.7% | EC50 [4, 9]: 0.78 µM

O=C(NCC1CCCN1)C(c1ccccc1)c1ccc(Cl)cc1 (stereo not drawn) [compound 19]
IC50 (L. majIPCS): 6.9 µM | inhibition at 20 µM (L. majIPCS; 20 µM, microsomal preparation): 81.2 ± 1.3% | EC50 [4, 6]: > 33 µM

O=C(CC1CCCN1)NC(c1ccccc1)c1ccc(Cl)cc1 (stereo not drawn) [compound 21]
IC50 (L. majIPCS): 6.95 µM | inhibition at 20 µM (L. majIPCS; 20 µM, microsomal preparation): 82.7% | EC50 [4, 6]: > 33 µM

O=C(NCC1CCCO1)C(c1ccccc1)c1ccc(Cl)cc1 (stereo not drawn) [compound 22]
inhibition at 20 µM (L. majIPCS; 20 µM, microsomal preparation): 2.9 ± 1.4%

O=C(CC1CCCC1)NC(c1ccccc1)c1ccc(Cl)cc1 (stereo not drawn) [compound 23]
inhibition at 20 µM (L. majIPCS; 20 µM, microsomal preparation): -5.4 ± 2.3%

CN(C)CCn1ncc2ccc(NC(=O)C(c3ccccc3)c3ccc(Cl)cc3)cc21 (stereo not drawn) [compound 24]
IC50 (L. majIPCS): 2.41 µM | inhibition at 20 µM (L. majIPCS; 20 µM, microsomal preparation): 90.2 ± 2.4% | EC50 [4, 6]: > 10 µM

CN(C)CCn1ncc2ccc(COC(c3ccccc3)c3ccc(Cl)cc3)cc21 (stereo not drawn) [compound 27]
IC50 (L. majIPCS): 4.72 µM | EC50 [4, 6]: > 5 µM

CN1CCC[C@@H]1CCOC(c1ccccc1)c1ccccc1 [compound 28]
EC50 [4, 9]: 8.44 µM | EC50 [5, 10]: 1.17 µM

CN1CCC[C@@H]1CCOC(c1ccccc1)c1ccc(Br)cc1 (stereo partly drawn) [compound 29]
IC50 (L. majIPCS): 3.21 µM | EC50 [4, 9]: 1.36 µM

COc1ccc(C(OCC[C@H]2CCCN2C)c2ccccc2)cc1 (stereo partly drawn) [compound 30]
EC50 [4, 9]: 6.83 µM | EC50 [5, 10]: 0.5 µM

COc1cccc(C(OCC[C@H]2CCCN2C)c2ccccc2)c1 (stereo partly drawn) [compound 31]
EC50 [4, 9]: 8.44 µM | EC50 [5, 10]: 0.63 µM

CN1CCC[C@@H]1CCOC(c1ccccc1)c1ccc(F)cc1 (stereo partly drawn) [compound 32]
EC50 [4, 9]: 2.25 µM | EC50 [5, 10]: 1.62 µM

CN1CCC[C@@H]1CCOC(c1ccc(F)cc1)c1ccc(F)cc1 [compound 33]
EC50 [4, 9]: 2.87 µM | EC50 [5, 10]: 2.74 µM

CN1CCC[C@@H]1CCO[C@H](c1ccccc1)c1ccc(Cl)cc1 [compound 35]
binding profile across receptor panel [1]: activity against a broad representation of receptor sub-types | EC50 [4, 9]: 0.13 µM | EC50 [5, 10]: 0.101 µM

CN1CCC[C@@H]1CCO[C@@H](c1ccccc1)c1ccc(Cl)cc1 [compound 37]
EC50 [4, 9]: 1.33 µM | EC50 [5, 10]: 1.4 µM
